According to patent US20220153745A1, “DISUBSTITUTED BENZOTHIENYL-PYRROLOTRIAZINES AND THEIR USE AS FGFR KINASE INHIBITORS” (Bayer Intellectual Property GmbH, priority 2011, published 2022):
Counter-ions that a name gives are not always drawn.

What was measured:
mTOR = biological target: T1, mTOR (Homo sapiens, UniProt P42345); assay: mTOR kinase assay (TR-FRET, for comparative purposes); assay type: biochemical; settings: for inhibition at 1 µM: read-out: mTOR % inhibition @ 1 μM, mean inhibition at 1 μM test compound, 40 μM ATP; for mTOR % inhibition @ 1 μM: mean inhibition at 1 μM test compound, 40 μM ATP
T1 construct: human mTOR amino acids from 1360 to 2549; purchased Invitrogen 4753; host or cells: insect cells
T1 sequence (P42345 1360-2549): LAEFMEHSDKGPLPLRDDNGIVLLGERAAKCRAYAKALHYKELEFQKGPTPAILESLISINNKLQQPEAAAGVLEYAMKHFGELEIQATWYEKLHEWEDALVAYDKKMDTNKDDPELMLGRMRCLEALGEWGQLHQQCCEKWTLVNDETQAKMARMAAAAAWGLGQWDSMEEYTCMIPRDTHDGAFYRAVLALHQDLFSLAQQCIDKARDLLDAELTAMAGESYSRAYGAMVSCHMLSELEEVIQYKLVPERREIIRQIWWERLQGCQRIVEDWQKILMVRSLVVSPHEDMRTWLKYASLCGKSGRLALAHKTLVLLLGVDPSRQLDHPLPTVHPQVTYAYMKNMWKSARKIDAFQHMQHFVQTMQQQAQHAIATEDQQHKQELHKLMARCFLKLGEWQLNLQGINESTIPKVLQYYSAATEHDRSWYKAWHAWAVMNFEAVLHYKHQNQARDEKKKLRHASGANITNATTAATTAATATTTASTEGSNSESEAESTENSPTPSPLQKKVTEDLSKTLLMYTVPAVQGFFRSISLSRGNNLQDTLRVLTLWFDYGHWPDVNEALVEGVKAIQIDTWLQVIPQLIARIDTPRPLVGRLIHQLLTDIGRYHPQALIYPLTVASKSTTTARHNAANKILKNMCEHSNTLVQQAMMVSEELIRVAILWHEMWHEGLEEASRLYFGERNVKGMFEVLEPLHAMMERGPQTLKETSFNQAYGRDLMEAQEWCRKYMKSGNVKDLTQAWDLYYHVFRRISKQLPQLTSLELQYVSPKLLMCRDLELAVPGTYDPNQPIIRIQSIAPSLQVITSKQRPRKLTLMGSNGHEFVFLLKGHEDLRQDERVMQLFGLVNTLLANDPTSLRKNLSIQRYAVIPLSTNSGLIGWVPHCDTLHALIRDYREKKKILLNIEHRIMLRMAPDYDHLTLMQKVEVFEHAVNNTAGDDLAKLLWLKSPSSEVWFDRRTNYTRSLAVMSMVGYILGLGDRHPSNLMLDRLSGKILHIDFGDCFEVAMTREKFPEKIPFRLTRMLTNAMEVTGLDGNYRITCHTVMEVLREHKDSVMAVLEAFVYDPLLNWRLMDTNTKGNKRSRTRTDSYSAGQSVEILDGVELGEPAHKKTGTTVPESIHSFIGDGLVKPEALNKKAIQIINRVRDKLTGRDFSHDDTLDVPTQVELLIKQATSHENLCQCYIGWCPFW

[1] = tested on: Human umbilical vein endothelial cells (HUVEC); assay: Inhibition of hFGF-2 mediated HUVEC proliferation; assay type: cell-based; settings: 72 h

SMILES | inhibition at 1 µM (mTOR) | IC50 [1] | mTOR % inhibition @ 1 μM (mTOR)
COc1cc(C)cc2cc(-c3c(CNCC(C)O)c(CN4CCOCC4)n4ncnc(N)c34)sc12 (racemic) [Example 53, rac-1-({[4-Amino-5-(7-methoxy-5-methyl-1-benzothiophen-2-yl)-7-(morpholin-4-ylmethyl)pyrrolo[2,1-f][1,2,4]triazin-6-yl]methyl}amino)propan-2-ol] | 3.3% | 3.3 nM | 
COc1cc(C)cc2cc(-c3c(CO)c(CN4CCNC(=O)C4)n4ncnc(N)c34)sc12 [Example 13, 4-{[4-Amino-6-(hydroxymethyl)-5-(7-methoxy-5-methyl-1-benzothiophen-2-yl)pyrrolo[2,1-f][1,2,4]-triazin-7-yl]methyl}piperazin-2-one] | 14.9% | 17 nM | 
COc1cc(C)cc2cc(-c3c(COCCO)c(CN4CCNC(=O)C4)n4ncnc(N)c34)sc12 [Example 21, 4-({4-Amino-6-[(2-hydroxyethoxy)methyl]-5-(7-methoxy-5-methyl-1-benzothiophen-2-yl)pyrrolo[2,1-f][1,2,4]triazin-7-yl}methyl)piperazin-2-one formiate] | 5% | 3.7 nM | 
COc1cc(C)cc2cc(-c3c(COC4CCC4)c(CN4CCNCC4)n4ncnc(N)c34)sc12 [Example 26, 6-[(Cyclobutyloxy)methyl]-5-(7-methoxy-5-methyl-1-benzothiophen-2-yl)-7-(piperazin-1-ylmethyl)pyrrolo[2,1-f][1,2,4]triazin-4-amine] | 6.8% | 56.7 nM | 
COc1cc(C)cc2cc(-c3c(COCC(N)=O)c(CN4CCN(C(C)=O)CC4)n4ncnc(N)c34)sc12 [Example 34, 2-({7-[(4-Acetylpiperazin-1-yl)methyl]-4-amino-5-(7-methoxy-5-methyl-1-benzothiophen-2-yl)pyrrolo[2,1-f][1,2,4]triazin-6-yl}methoxy)acetamide] | 25.9% | 37.3 nM | 
COc1cc(C)cc2cc(-c3c(CN[C@H]4CCNC4=O)c(CN4CCOCC4)n4ncnc(N)c34)sc12 [Example 51, (3S)-3-({[4-Amino-5-(7-methoxy-5-methyl-1-benzothiophen-2-yl)-7-(morpholin-4-ylmethyl)pyrrolo[2,1-f][1,2,4]triazin-6-yl]methyl}amino)pyrrolidin-2-one] | 8.4% | 1.2 nM | 
COc1cc(C)cc2cc(-c3c(CN4CCNC(=O)C4)c(CN4CCOCC4)n4ncnc(N)c34)sc12 [Example 52, 4-{[4-Amino-5-(7-methoxy-5-methyl-1-benzothiophen-2-yl)-7-(morpholin-4-ylmethyl)pyrrolo[2,1-f][1,2,4]triazin-6-yl]methyl}piperazin-2-one] | 4.2% | 4 nM | 
COc1cc(C)cc2cc(-c3c(CNCC(C)(C)O)c(CN4CCOCC4)n4ncnc(N)c34)sc12 [Example 54, 1-({[4-Amino-5-(7-methoxy-5-methyl-1-benzothiophen-2-yl)-7-(morpholin-4-ylmethyl)pyrrolo[2,1-f][1,2,4]triazin-6-yl]methyl}amino)-2-methylpropan-2-ol] | 1.7% | 2.2 nM | 
COc1cc(C)cc2cc(-c3c(CN[C@@H]4CCNC4=O)c(CN4CCN(C(C)=O)CC4)n4ncnc(N)c34)sc12 [Example 56, (3R)-3-[({7-[(4-Acetylpiperazin-1-yl)methyl]-4-amino-5-(7-methoxy-5-methyl-1-benzothiophen-2-yl)pyrrolo[2,1-f][1,2,4]triazin-6-yl}methyl)amino]pyrrolidin-2-one] | 16.1% | 18.1 nM | 
COc1cc(C)cc2cc(-c3c(CNCC(C)(C)O)c(CN4CCN(C(C)=O)CC4)n4ncnc(N)c34)sc12 [Example 57, 1-(4-{[4-Amino-6-{[(2-hydroxy-2-methylpropyl)amino]methyl}-5-(7-methoxy-5-methyl-1-benzothiophen-2-yl)pyrrolo[2,1-f][1,2,4]triazin-7-yl]methyl}piperazin-1-yl)ethanone] | 2% | 3.2 nM | 
COc1cc(C)cc2cc(-c3c(CN4CCNC(=O)C4)c(CN4CCN(C(C)=O)CC4)n4ncnc(N)c34)sc12 [Example 59, 4-({7-[(4-Acetylpiperazin-1-yl)methyl]-4-amino-5-(7-methoxy-5-methyl-1-benzothiophen-2-yl)pyrrolo[2,1-f][1,2,4]triazin-6-yl}methyl)piperazin-2-one] | 0.8% | 51.1 nM | 
COC(=O)c1c(-c2cc3cc(C)cc(OC)c3s2)c2c(N)ncnn2c1C(=O)N1CCNCC1 [Example 60, Methyl 4-amino-5-(7-methoxy-5-methyl-1-benzothiophen-2-yl)-7-(piperazin-1-ylcarbonyl)pyrrolo[2,1-f][1,2,4]triazine-6-carboxylate bis(formiate)] | 11.1% | 250 nM | 
COc1cc(C)cc2cc(-c3c(CNC(C)=O)c(CN4CCNC(=O)C4)n4ncnc(N)c34)sc12 [Example 67, N-({4-Amino-5-(7-methoxy-5-methyl-1-benzothiophen-2-yl)-7-[(3-oxopiperazin-1-yl)methyl]-pyrrolo[2,1-f][1,2,4]triazin-6-yl}methyl)acetamide] | 8.4% | 12.1 nM | 
COc1cc(C)cc2cc(-c3c(CO)c(C#N)n4ncnc(N)c34)sc12 [Example 68, 4-Amino-6-(hydroxymethyl)-5-(7-methoxy-5-methyl-1-benzothiophen-2-yl)pyrrolo[2,1-f][1,2,4]-triazine-7-carbonitrile] | 8% | 14.4 nM | 
CCOCc1c(-c2cc3cc(C)cc(OC)c3s2)c2c(N)ncnn2c1C#N [Example 70, 4-Amino-6-(ethoxymethyl)-5-(7-methoxy-5-methyl-1-benzothiophen-2-yl)pyrrolo[2,1-f][1,2,4]-triazine-7-carbonitrile] | 5.8% |  | 
COc1cc(C)cc2cc(-c3c(CN4CCNC(=O)C4)c(C#N)n4ncnc(N)c34)sc12 [Example 71, 4-Amino-5-(7-methoxy-5-methyl-1-benzothiophen-2-yl)-6-[(3-oxopiperazin-1-yl)methyl]pyrrolo[2,1-f][1,2,4]triazine-7-carbonitrile] | 0.1% |  | 
COc1cc(C)cc2cc(-c3c(CNC(C)=O)c(CNC(C)=O)n4ncnc(N)c34)sc12 [Example 72, N,N′-{[4-Amino-5-(7-methoxy-5-methyl-1-benzothiophen-2-yl)pyrrolo[2,1-f][1,2,4]triazine-6,7-diyl]bis(methylene)}diacetamide] | 8.2% | 1.6 nM | 
COc1cc(C)cc2cc(-c3c(CO)c(C(C)(C)O)n4ncnc(N)c34)sc12 [Example 73, 2-[4-Amino-6-(hydroxymethyl)-5-(7-methoxy-5-methyl-1-benzothiophen-2-yl)pyrrolo[2,1-f][1,2,4]-triazin-7-yl]propan-2-ol] | 18.5% | 5.5 nM | 
COc1cc(C)cc2cc(-c3c(CN4CCNC(=O)C4)c(C(C)(C)O)n4ncnc(N)c34)sc12 [Example 74, 4-{[4-Amino-7-(2-hydroxypropan-2-yl)-5-(7-methoxy-5-methyl-1-benzothiophen-2-yl)pyrrolo[2,1-f][1,2,4]triazin-6-yl]methyl}piperazin-2-one] | 18.6% | 0.2 nM | 
COc1cc(C)cc2cc(-c3c(CNCC(C)(C)O)c(C)n4ncnc(N)c34)sc12 [Example 78, 1-({[4-Amino-5-(7-methoxy-5-methyl-1-benzothiophen-2-yl)-7-methylpyrrolo[2,1-f][1,2,4]triazin-6-yl]methyl}amino)-2-methylpropan-2-ol] |  |  | 5.8%
COc1cc(C)cc2cc(-c3c(CN4CCNC(=O)C4)c(Cl)n4ncnc(N)c34)sc12 [Example 80, 4-{[4-Amino-7-chloro-5-(7-methoxy-5-methyl-1-benzothiophen-2-yl)pyrrolo[2,1-f][1,2,4]triazin-6-yl]methyl}piperazin-2-one] | 3.9% |  | 
COc1cc(C)cc2cc(-c3c(CNCC(C)(C)O)c(Cl)n4ncnc(N)c34)sc12 [Example 82, 1-({[4-Amino-7-chloro-5-(7-methoxy-5-methyl-1-benzothiophen-2-yl)pyrrolo[2,1-f][1,2,4]triazin-6-yl]methyl}amino)-2-methylpropan-2-ol] |  |  | 7.1%
CCOCc1c(-c2cc3cc(C)cc(OC)c3s2)c2c(N)ncnn2c1Cl [Example 83, 7-Chloro-6-(ethoxymethyl)-5-(7-methoxy-5-methyl-1-benzothiophen-2-yl)pyrrolo[2,1-f][1,2,4]-triazin-4-amine] | 6.3% |  | 
COc1cc(C)cc2cc(-c3c(Cl)c(CN4CCNCC4)n4ncnc(N)c34)sc12 [Example 85, 6-Chloro-5-(7-methoxy-5-methyl-1-benzothiophen-2-yl)-7-(piperazin-1-ylmethyl)pyrrolo[2,1-f]-[1,2,4]triazin-4-amine trihydrochloride] | 0.9% |  | 
CCOCc1c(-c2cc3cc(C)cc(OC)c3s2)c2c(N)ncnn2c1CN1CCNC1=O [Example 87, 1-{[4-Amino-6-(ethoxymethyl)-5-(7-methoxy-5-methyl-1-benzothiophen-2-yl)pyrrolo[2,1-f][1,2,4]-triazin-7-yl]methyl}imidazolidin-2-one] | 12.7% |  | 
COCc1c(-c2cc3cccc(OC)c3s2)c2c(N)ncnn2c1CN1CCNC(=O)C1 [Example 88, 4-{[4-Amino-5-(7-methoxy-1-benzothiophen-2-yl)-6-(methoxymethyl)pyrrolo[2,1-f][1,2,4]triazin-7-yl]methyl}piperazin-2-one] | 5.3% |  | 
CCOCc1c(-c2cc3cc(C)cc(OC)c3s2)c2c(N)ncnn2c1CN[C@H]1CCNC1=O [Example 93, (3S)-3-({[4-Amino-6-(ethoxymethyl)-5-(7-methoxy-5-methyl-1-benzothiophen-2-yl)pyrrolo[2,1-f]-[1,2,4]triazin-7-yl]methyl}amino)pyrrolidin-2-one] | 12.5% |  | 
CCOCc1c(-c2cc3cc(C)cc(OC)c3s2)c2c(N)ncnn2c1CN1CCS(=O)(=O)CC1 [Example 99] | 5.3% |  | 
CCOCc1c(-c2cc3cc(C)cc(OC)c3s2)c2c(N)ncnn2c1C(=O)NCCO [Example 108] | 8.5% |  | 
